What was measured:
Matrilysin = molecular target: T1, Matrilysin (Homo sapiens, UniProt P09237); test: Inhibition of human recombinant MMP7
T1 sequence (P09237 whole entry): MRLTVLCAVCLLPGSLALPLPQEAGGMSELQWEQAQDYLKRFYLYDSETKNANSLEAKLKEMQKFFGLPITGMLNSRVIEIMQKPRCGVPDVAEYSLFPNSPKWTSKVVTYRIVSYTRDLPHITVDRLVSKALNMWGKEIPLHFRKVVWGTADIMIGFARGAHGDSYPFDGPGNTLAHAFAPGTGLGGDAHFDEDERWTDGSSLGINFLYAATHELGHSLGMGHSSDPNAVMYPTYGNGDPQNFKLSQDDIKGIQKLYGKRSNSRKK

[1] = molecular target: T2, Matrilysin (Homo sapiens) (UniProt P09237); test: Ratio of IC50 of drug to CGS 27023A for human recombinant MMP7
T2 sequence (whole entry): T1 sequence (P09237 whole entry)

[2] = molecular target: T3, 72 kDa type IV collagenase (Homo sapiens, UniProt P08253); test: Inhibition of human recombinant MMP2
Target sequence in this assay (P08253 whole entry): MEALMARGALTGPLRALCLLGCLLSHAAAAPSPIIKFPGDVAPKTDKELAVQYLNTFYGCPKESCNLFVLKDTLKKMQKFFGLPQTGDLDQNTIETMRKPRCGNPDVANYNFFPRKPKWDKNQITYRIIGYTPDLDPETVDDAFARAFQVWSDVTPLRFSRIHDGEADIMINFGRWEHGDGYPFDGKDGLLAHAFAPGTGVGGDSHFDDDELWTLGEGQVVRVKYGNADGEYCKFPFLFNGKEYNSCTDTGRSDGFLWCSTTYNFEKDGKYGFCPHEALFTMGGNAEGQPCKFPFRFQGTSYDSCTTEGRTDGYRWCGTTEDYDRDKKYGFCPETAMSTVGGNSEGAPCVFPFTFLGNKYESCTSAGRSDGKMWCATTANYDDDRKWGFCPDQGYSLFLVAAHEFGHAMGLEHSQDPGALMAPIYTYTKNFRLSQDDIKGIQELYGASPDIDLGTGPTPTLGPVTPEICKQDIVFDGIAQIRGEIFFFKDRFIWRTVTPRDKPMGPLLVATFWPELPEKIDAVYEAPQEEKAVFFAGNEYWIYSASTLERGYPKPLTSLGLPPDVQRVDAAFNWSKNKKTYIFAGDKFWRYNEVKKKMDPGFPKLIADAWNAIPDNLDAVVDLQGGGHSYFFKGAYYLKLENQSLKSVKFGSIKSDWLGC

A549 [3] = test: Antiproliferative activity against A549 cells after 72 hrs by MTT assay; type: functional, cell-based; conditions: Homo sapiens, A549, 72 h
[4] = molecular target: T4, Matrix metalloproteinase-14 (Homo sapiens, UniProt P50281); test: Ratio of IC50 of drug to CGS 27023A for human recombinant MMP14
[5] = molecular target: T5, Matrix metalloproteinase-9 (Homo sapiens, UniProt P14780); test: Ratio of IC50 of drug to CGS 27023A for human recombinant MMP9
T5 sequence (P14780 whole entry): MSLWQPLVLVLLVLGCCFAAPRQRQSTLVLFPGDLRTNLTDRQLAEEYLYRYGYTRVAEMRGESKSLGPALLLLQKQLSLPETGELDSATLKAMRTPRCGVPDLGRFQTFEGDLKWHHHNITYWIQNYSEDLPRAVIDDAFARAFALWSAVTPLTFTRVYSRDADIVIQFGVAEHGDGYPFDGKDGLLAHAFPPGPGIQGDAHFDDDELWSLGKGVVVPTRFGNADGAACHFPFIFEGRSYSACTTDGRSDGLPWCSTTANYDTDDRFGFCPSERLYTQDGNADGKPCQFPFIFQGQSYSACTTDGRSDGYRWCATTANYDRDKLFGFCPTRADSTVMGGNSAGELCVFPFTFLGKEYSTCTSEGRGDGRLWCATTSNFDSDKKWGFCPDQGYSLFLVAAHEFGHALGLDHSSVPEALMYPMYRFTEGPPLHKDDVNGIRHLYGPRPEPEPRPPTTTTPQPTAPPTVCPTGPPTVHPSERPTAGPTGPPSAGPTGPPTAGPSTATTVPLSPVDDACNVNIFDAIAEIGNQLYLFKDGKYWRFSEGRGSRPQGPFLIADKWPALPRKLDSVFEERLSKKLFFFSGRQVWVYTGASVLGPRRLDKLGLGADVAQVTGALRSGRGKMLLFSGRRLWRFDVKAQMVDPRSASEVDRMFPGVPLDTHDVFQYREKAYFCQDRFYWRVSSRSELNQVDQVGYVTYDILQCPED

PPC-1 [6] = test: Antiproliferative activity against PPC1 cells after 72 hrs by MTT assay; type: functional, cell-based; conditions: Homo sapiens, PPC-1, 72 h
[7] = molecular target: T5, Matrix metalloproteinase-9; test: Inhibition of human recombinant MMP9
[8] = molecular target: T4, Matrix metalloproteinase-14; test: Inhibition of human recombinant MMP14
[9] = molecular target: T3, 72 kDa type IV collagenase; test: Ratio of IC50 of drug to CGS 27023A for human recombinant MMP2
Target sequence in this assay (P08253 110-660 limits assumed): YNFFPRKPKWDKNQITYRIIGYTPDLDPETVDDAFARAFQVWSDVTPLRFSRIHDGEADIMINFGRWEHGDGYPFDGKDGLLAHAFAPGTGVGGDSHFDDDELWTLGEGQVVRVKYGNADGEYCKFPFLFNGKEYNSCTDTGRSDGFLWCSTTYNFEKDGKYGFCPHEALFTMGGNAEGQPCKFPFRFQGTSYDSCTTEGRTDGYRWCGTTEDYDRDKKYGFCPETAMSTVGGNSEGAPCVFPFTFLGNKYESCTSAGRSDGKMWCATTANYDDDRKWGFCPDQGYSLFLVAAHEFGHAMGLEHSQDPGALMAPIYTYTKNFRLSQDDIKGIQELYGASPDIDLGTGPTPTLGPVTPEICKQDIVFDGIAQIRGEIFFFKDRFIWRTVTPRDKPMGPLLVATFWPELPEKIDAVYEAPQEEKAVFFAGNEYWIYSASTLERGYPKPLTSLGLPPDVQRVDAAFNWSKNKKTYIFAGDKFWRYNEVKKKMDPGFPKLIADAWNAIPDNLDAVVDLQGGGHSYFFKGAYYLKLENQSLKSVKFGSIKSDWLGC

[10] = Antiproliferative activity against Tsu-Pr1 cells after 72 hrs by MTT assay; type: functional, cell-based; conditions: Homo sapiens, TSU-Pr1, 72 h
[11] = molecular target: T4, Matrix metalloproteinase-14; test: Inhibition of human recombinant MMP14 at 100 uM
[12] = molecular target: T3, 72 kDa type IV collagenase; test: Inhibition of human recombinant MMP2 at 100 uM
Target sequence in this assay (P08253 110-660 limits assumed): as above

[13] = molecular target: T5, Matrix metalloproteinase-9; test: Inhibition of human recombinant MMP9 at 100 uM
[14] = molecular target: T2, Matrilysin (Homo sapiens); test: Inhibition of human recombinant MMP7 at 100 uM
PPC-1 [15] = test: Antiproliferative activity against PPC1 cells after 72 hrs in folate depleted media; type: functional, cell-based; conditions: Homo sapiens, PPC-1, 72 h
[16] = Antiproliferative activity against Tsu-Pr1 cells after 72 hrs in folate depleted media; type: functional, cell-based; conditions: Homo sapiens, TSU-Pr1, 72 h
A549 [17] = test: Antiproliferative activity against A549 cells after 72 hrs in folate depleted media; type: functional, cell-based; conditions: Homo sapiens, A549, 72 h
Dihydrofolate reductase [18] = molecular target: T6, Dihydrofolate reductase (Homo sapiens, UniProt P00374)
T6 sequence (P00374 whole entry): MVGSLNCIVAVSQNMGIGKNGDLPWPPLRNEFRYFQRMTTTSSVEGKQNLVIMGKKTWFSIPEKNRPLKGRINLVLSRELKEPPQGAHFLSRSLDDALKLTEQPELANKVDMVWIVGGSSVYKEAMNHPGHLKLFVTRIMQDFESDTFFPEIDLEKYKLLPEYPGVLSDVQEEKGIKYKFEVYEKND
Description: Inhibition of DHFR using dihydrofolic acid substrate

Dihydrofolate reductase [19] = molecular target: T6, Dihydrofolate reductase; remark: listed apart in the source
Description: Inhibition of DHFR using folic acid substrate

| Compound | IC50 (Matrilysin) | Ratio IC50 [1] | IC50 [2] | IC50 (A549 [3]) | Ratio IC50 [4] | Ratio IC50 [5] | IC50 (PPC-1 [6]) | IC50 [7] | IC50 [8] | Ratio IC50 [9] | IC50 [10] | inhibition [11] | inhibition [12] | inhibition [13] | inhibition [14] | IC50 (PPC-1 [15]) | IC50 [16] | IC50 (A549 [17]) | IC50 (Dihydrofolate reductase [18]) | IC50 (Dihydrofolate reductase [19]) |
| --- | --- | --- | --- | --- | --- | --- | --- | --- | --- | --- | --- | --- | --- | --- | --- | --- | --- | --- | --- | --- |
| Nc1nc2ncc(CNc3ccc(C(=O)N[C@@H](CCC(=O)N[C@@H](Cc4ccccc4)C(=O)NO)C(=O)O)cc3)nc2c(=O)[nH]1 | 15000 nM | 150 | 65000 nM | 110000 nM | 3480 | 4400 | 70000 nM | 22000 nM | 80000 nM | 2710 | 150000 nM |  |  |  |  |  |  |  |  |  |
| Nc1nc2ncc(CNc3ccc(C(=O)N[C@@H](CCC(=O)NO)C(=O)O)cc3)nc2c(=O)[nH]1 |  |  |  | 100000 nM |  |  | 80000 nM |  |  |  | 120000 nM | 42% | 66% | 55% | 53% |  |  |  |  |  |
| CN(Cc1cnc2nc(N)nc(N)c2n1)c1ccc(C(=O)N[C@@H](CCC(=O)O)C(=O)O)cc1 [METHOTREXATE] |  |  |  | 100 nM |  |  | 100 nM |  |  |  | 100 nM |  |  |  |  | 10 nM | 8 nM | 20 nM |  |  |
| NC1=NC(=O)C2N=C(CNc3ccc(C(=O)N[C@@H](CCC(=O)N4CCC[C@H]4C(=O)NO)C(=O)O)cc3)C=NC2=N1 (stereo not given in full) |  |  |  | 130000 nM |  |  | 120000 nM |  |  |  | 80000 nM |  | 58% |  | 54% |  |  |  |  |  |
| CN(Cc1cnc2nc(N)nc(N)c2n1)c1ccc(C(=O)N[C@@H](CCC(=O)NO)C(=O)O)cc1 | 100000 nM |  |  | 6000 nM |  |  | 2000 nM |  |  |  | 2000 nM | 48% | 67% | 61% |  | 50 nM | 10 nM | 100 nM | 70 nM | 170 nM |
| COc1ccc(S(=O)(=O)N(Cc2cccnc2)[C@@H](C(=O)NO)C(C)C)cc1 [CGS-27023A] |  |  |  |  |  |  |  |  | 23 nM |  |  |  |  |  |  |  |  |  |  |  |
| CN(Cc1cnc2nc(N)nc(N)c2n1)c1ccc(C(=O)N[C@@H](CCC(=O)N2CCC[C@H]2C(=O)NO)C(=O)O)cc1 |  |  |  | 7500 nM |  |  | 1800 nM |  |  |  | 2300 nM | 47% | 56% | 61% | 43% | 200 nM | 100 nM | 500 nM | 120 nM | 130 nM |
| CN(Cc1cnc2nc(N)nc(N)c2n1)c1ccc(C(=O)N[C@@H](CCC(=O)N[C@@H](Cc2ccccc2)C(=O)NO)C(=O)O)cc1 | 44000 nM | 440 | 60000 nM | 6500 nM | 3040 | 3000 | 4800 nM | 15000 nM | 70000 nM | 2500 | 2000 nM |  |  |  |  | 500 nM | 120 nM | 500 nM | 170 nM | 250 nM |

From ChEMBL document CHEMBL1146314, “Methotrexate gamma-hydroxamate derivatives as potential dual target antitumor drugs” (Bioorg Med Chem, 2007)
